Assay results from US8268363B2, “Pharmaceutical combination preparation containing glycyrrhizine, zinc, and a compound comprising a thiol group or a group that is metabolized thereto” (priority 2003, dated 2012).

System: flu symptoms (colds, flu, viral infection of the upper respiratory tract)
Test: clinical studies in flu symptoms: single substances and the combination
Type: in vivo, human
Conditions: single treatment; for effect on a scale of 1-10 (1 least effect, 10 maximum effect): daily dose divided in three doses; for average duration of the illness: daily dose divided in three doses (zinc 125 mg, N-acetylcysteine 2400 mg, glycyrrhicinic acid 1500 mg), without treatment normally 7 days
Procedure: In clinical studies each single substance was tested in flu symptoms (colds, flu, viral infection of the upper respiratory tract) whose duration without treatment normal lasted 7 days.
a) Zinc as a single treatment: • 125mg per day, divided in three doses:
b) N-Acetylcysteine • 2400 mg, divided in three doses;
c) Glycyrrhicinic acid • 1500 mg, divided in three doses;
The average duration of illness with the treatment combination of all three of the above substances a), b), and c) in the majority of the cases the duration of the illness was shortened to 24 hours or less. […] 24 hours later, 85% of the patients were completely without symptoms and able to return to work. The maximum duration in a few cases lasted 5 days.
Further, 20 children between the ages of 7 to 15 years old were treated with half of the doses from the combination of a) b) and c). The results were the same as for the adults.

Molecule | effect on a scale of 1-10 (1 least effect, 10 maximum effect) | average duration of the illness
CC(=O)N[C@@H](CS)C(=O)O [N-Acetylcysteine] | 5 | 4 days
Glycyrrhicinic acid | 2 | 5.0 days
Zinc | 2 | 5 days
